Patent publication US20100267561A1, “HERBICIDAL PYRIDAZINONE DERIVATIVES” (priority 2007, published 2010)

How the values were obtained:
Format in all cases: in vivo
[1] = test system: ducksalad (Heteranthera limosa); experiment: Test B flooded paddy test plant response
In short: (§1)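 Paddy-water application to 2-leaf plants in pots held under 3 cm of flooding; response is a 0–100 visual control rating against controls after 13 to 15 days, and a dash marks a missing result.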

[2] = test system: umbrella sedge (Cyperus difformis); experiment: Test B flooded paddy test plant response
In short: as §1

[3] = test system: barnyardgrass (Echinochloa crus-galli); experiment: Test B flooded paddy test plant response
In short: as §1

[4] = test system: large crabgrass (Digitaria sanguinalis); experiment: Test A pre-/postemergence plant response
In short: (§2)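 Greenhouse pot test: loam–sand soil; pre- and postemergence sprays applied same day; post plants 2–10 cm, 1–2 leaves. Readout ~10 d, visual % injury vs untreated (0 = none, 100 = complete control).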

[5] = test system: wheat (Triticum aestivum); experiment: Test A pre-/postemergence plant response
In short: as §2

[6] = test system: giant foxtail (Setaria faberi); experiment: Test A pre-/postemergence plant response
In short: as §2

[7] = test system: barnyardgrass (Echinochloa crus-galli); experiment: Test A pre-/postemergence plant response
In short: as §2

[8] = test system: pigweed (Amaranthus retroflexus); experiment: Test A pre-/postemergence plant response
In short: as §2

[9] = test system: velvetleaf (Abutilon theophrasti); experiment: Test A pre-/postemergence plant response
In short: as §2

[10] = test system: morningglory (Ipomoea coccinea); experiment: Test A pre-/postemergence plant response
In short: as §2

[11] = test system: windgrass (Apera spica-venti); experiment: Test B postemergence plant response; conditions: Postemergence
In short: (§3)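 Visual injury ratings on a 0–100 scale, where 100 means complete control, were made 13 to 15 days after postemergence treatment of greenhouse-grown plants at the 1- to 4-leaf stage.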

[12] = test system: canarygrass (Phalaris minor); experiment: Test B postemergence plant response; conditions: Postemergence
In short: as §3

[13] = test system: chickweed (Stellaria media); experiment: Test B postemergence plant response; conditions: Postemergence
In short: as §3

[14] = test system: winter barley (Hordeum vulgare); experiment: Test B postemergence plant response; conditions: Postemergence
In short: as §3

[15] = Flood (flooded paddy test), 62 g ai/ha, scale 0 to 100, 0 no effect, 100 complete control
[16] = Flood (flooded paddy test), 125 g ai/ha, scale 0 to 100, 0 no effect, 100 complete control
[17] = Flood (flooded paddy test), 250 g ai/ha, scale 0 to 100, 0 no effect, 100 complete control
[18] = Flood, 31 g ai/ha, scale 0 to 100
[19] = Postemergence, 125 g ai/ha, 0 to 100 scale, 0 no effect, 100 complete control
[20] = Postemergence, 500 g ai/ha, 0 to 100 scale, 0 no effect, 100 complete control
[21] = Preemergence, 125 g ai/ha, 0 to 100 scale (0 no effect, 100 complete control)
[22] = Preemergence, 500 g ai/ha, 0 to 100 scale (0 no effect, 100 complete control)
[23] = 31 g ai/ha, scale 0 to 100, 0 no effect, 100 complete control

Cc1nn(C)c(=O)c(-n2nc(-c3ccc(Cl)cc3)cc2C)c1O [Compound 15]
10: Plant response rating, Barley [14, 23] | Plant response rating, Barley ([14]; 62 g ai/ha, scale 0 to 100)
85: Plant response rating, Canarygrass ([12]; 125 g ai/ha, scale 0 to 100)
35: Plant response rating, Canarygrass [12, 23] | Plant response rating, Canarygrass ([12]; 62 g ai/ha, scale 0 to 100)
0: Plant response rating, Ducksalad [1, 15] | Plant response rating, Ducksalad [1, 18] | Plant response rating, Sedge, Umbrella [2, 18] | Plant response rating, Barnyardgrass [3, 18] | Plant response rating, Pigweed [8, 19] | Plant response rating, Pigweed [8, 20] | Plant response rating, Pigweed [8, 21] | Plant response rating, Pigweed [8, 22] | Plant response rating, Velvetleaf [9, 19] | Plant response rating, Velvetleaf [9, 20] | Plant response rating, Velvetleaf [9, 21] | Plant response rating, Velvetleaf [9, 22] | Plant response rating, Morningglory [10, 19] | Plant response rating, Morningglory [10, 20] | Plant response rating, Morningglory [10, 21] | Plant response rating, Morningglory [10, 22] | Plant response rating, Chickweed [13, 23] | Plant response rating, Chickweed ([13]; 62 g ai/ha, scale 0 to 100) | Plant response rating, Chickweed ([13]; 125 g ai/ha, scale 0 to 100) | Plant response rating, Chickweed ([13]; 250 g ai/ha, scale 0 to 100)
90: Plant response rating, Crabgrass, Large [4, 19] | Plant response rating, Foxtail, Giant [6, 19] | Plant response rating, Foxtail, Giant [6, 21] | Plant response rating, Windgrass [11, 23] | Plant response rating, Windgrass ([11]; 62 g ai/ha, scale 0 to 100) | Plant response rating, Barley ([14]; 125 g ai/ha, scale 0 to 100)
100: Plant response rating, Ducksalad [1, 17] | Plant response rating, Crabgrass, Large [4, 20] | Plant response rating, Crabgrass, Large [4, 22] | Plant response rating, Foxtail, Giant [6, 20] | Plant response rating, Foxtail, Giant [6, 22] | Plant response rating, Barnyardgrass [7, 19] | Plant response rating, Barnyardgrass [7, 20] | Plant response rating, Barnyardgrass [7, 21] | Plant response rating, Barnyardgrass [7, 22] | Plant response rating, Windgrass ([11]; 125 g ai/ha, scale 0 to 100) | Plant response rating, Windgrass ([11]; 250 g ai/ha, scale 0 to 100)
15: Plant response rating, Barnyardgrass [3, 15]
50: Plant response rating, Sedge, Umbrella [2, 15] | Plant response rating, Wheat [5, 19]
40: Plant response rating, Barnyardgrass [3, 16]
70: Plant response rating, Sedge, Umbrella [2, 17]
80: Plant response rating, Ducksalad [1, 16] | Plant response rating, Crabgrass, Large [4, 21] | Plant response rating, Wheat [5, 22]
60: Plant response rating, Sedge, Umbrella [2, 16] | Plant response rating, Barnyardgrass [3, 17] | Plant response rating, Wheat [5, 20] | Plant response rating, Wheat [5, 21]

CCc1cc(-c2ccc(C(F)(F)F)cc2)nn1-c1c(O)c(C)nn(C)c1=O [Compound 16]
98: Plant response rating, Barley ([14]; 250 g ai/ha, scale 0 to 100)
30: Plant response rating, Sedge, Umbrella [2, 15] | Plant response rating, Sedge, Umbrella [2, 16]
70: Plant response rating, Wheat [5, 19] | Plant response rating, Wheat [5, 21] | Plant response rating, Canarygrass [12, 23]
20: Plant response rating, Barnyardgrass [3, 15]
90: Plant response rating, Crabgrass, Large [4, 19] | Plant response rating, Crabgrass, Large [4, 21] | Plant response rating, Wheat [5, 20] | Plant response rating, Barnyardgrass [7, 19] | Plant response rating, Windgrass [11, 23] | Plant response rating, Barley [14, 23] | Plant response rating, Barley ([14]; 62 g ai/ha, scale 0 to 100)
40: Plant response rating, Barnyardgrass [3, 16]
15: Plant response rating, Barnyardgrass [3, 18]
95: Plant response rating, Canarygrass ([12]; 62 g ai/ha, scale 0 to 100) | Plant response rating, Barley ([14]; 125 g ai/ha, scale 0 to 100)
45: Plant response rating, Sedge, Umbrella [2, 17]
100: Plant response rating, Crabgrass, Large [4, 20] | Plant response rating, Crabgrass, Large [4, 22] | Plant response rating, Wheat [5, 22] | Plant response rating, Foxtail, Giant [6, 19] | Plant response rating, Foxtail, Giant [6, 20] | Plant response rating, Foxtail, Giant [6, 21] | Plant response rating, Foxtail, Giant [6, 22] | Plant response rating, Barnyardgrass [7, 20] | Plant response rating, Barnyardgrass [7, 21] | Plant response rating, Barnyardgrass [7, 22] | Plant response rating, Windgrass ([11]; 62 g ai/ha, scale 0 to 100) | Plant response rating, Windgrass ([11]; 125 g ai/ha, scale 0 to 100) | Plant response rating, Windgrass ([11]; 250 g ai/ha, scale 0 to 100)
60: Plant response rating, Barnyardgrass [3, 17]
0: Plant response rating, Ducksalad [1, 15] | Plant response rating, Ducksalad [1, 16] | Plant response rating, Ducksalad [1, 17] | Plant response rating, Ducksalad [1, 18] | Plant response rating, Sedge, Umbrella [2, 18] | Plant response rating, Pigweed [8, 19] | Plant response rating, Pigweed [8, 20] | Plant response rating, Pigweed [8, 21] | Plant response rating, Pigweed [8, 22] | Plant response rating, Velvetleaf [9, 19] | Plant response rating, Velvetleaf [9, 20] | Plant response rating, Velvetleaf [9, 21] | Plant response rating, Velvetleaf [9, 22] | Plant response rating, Morningglory [10, 19] | Plant response rating, Morningglory [10, 20] | Plant response rating, Morningglory [10, 21] | Plant response rating, Morningglory [10, 22] | Plant response rating, Chickweed [13, 23] | Plant response rating, Chickweed ([13]; 62 g ai/ha, scale 0 to 100) | Plant response rating, Chickweed ([13]; 125 g ai/ha, scale 0 to 100) | Plant response rating, Chickweed ([13]; 250 g ai/ha, scale 0 to 100)
